Among the data in patent US9499550B2 (BRISTOL-MYERS SQUIBB COMPANY, priority 2012, dated 2016) are EC50 values, retold here.

pEC50: −log10 of the molar value. Where only a bound is given, the exact number is not on record here.

Assay [1] has as its system HCV genotype 1b (Con1) replicon in HUH-7 cells. Kind of assay: HCV replicon luciferase reporter assay, genotype 1b. The settings on record: Hepatitis C virus, Huh-7, 72 h, HCV genotype 1b replicon luciferase, 3 days incubation, read-out: LE_1b (EC50, range). Format: cell-based. An outline of the steps: (§1)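 Replicon inhibition for both genotypes was measured as Renilla luciferase signal (EnduRen, 7.5 μM final, 2 h) after 3-day, 37° C exposure of replicon-bearing HUH-7 cells in 4% FCS DMEM, 0.5% DMSO. The 1b construct carries S1179I; the 1a H77 construct carries P1496L and S2204I. Twenty-point, 3-fold dilutions were fitted four-parametrically for EC50, and CC50 was taken from multiplexed Cell Titer-Blue.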
In general terms: Replicon systems follow genome replication, usually without infectious particles.

Assay [2] has as its system HCV genotype 1a (H77 strain) replicon in HUH-7 cells. Kind of assay: HCV replicon luciferase reporter assay, genotype 1a. The class given is cell-based. The settings on record: Hepatitis C virus, Huh-7, 72 h, HCV genotype 1a replicon luciferase, 3 days incubation, read-out: LE_1a (EC50, range). An outline of the steps:
as §1

The term pEC50 denotes the EC50 on a negative log10 scale, so that one unit is a factor of ten. For the compound `[2H]C([2H])([2H])C(OC(=O)N[C@@H]1C(=O)N2C[C@H](Oc3nccc4cc(OC)ccc34)CC2C(=O)N[C@]2(C(=O)NS(=O)(=O)C3(C)CC3)C[C@H]2/C=C\CC[C@H](C)C[C@H]1C)(C([2H])([2H])[2H])C(F)(F)F` (stereo partly drawn) [Compound 5174, 1,1,1,3,3,3-hexadeutero-2-(trifluoromethyl)propan-2-yl((2R,6S,7R,9S,13aS,14aR,16aS,Z)-2-((6-methoxyisoquinolin-1-yl)oxy)-7,9-dimethyl-14a-(((1-methylcyclopropyl)sulfonyl)carbamoyl)-5,16-dioxo-1,2,3,5,6,7,8,9,10,11,13a,14,14a,15,16,16a-hexadecahydrocyclopropa[e]pyrrolo[1,2-a][1,4]diazacyclopentadecin-6-yl)carbamate], the negative logarithm of the EC50 (pEC50) in assay [1] and in assay [2] was more than 8.26 throughout.

On to `[2H]C([2H])([2H])C(OC(=O)N[C@@H]1C(=O)N2C[C@H](Oc3nccc4cc(OC)ccc34)CC2C(=O)N[C@]2(C(=O)NS(=O)(=O)C3(C)CC3)C[C@H]2/C=C\CC[C@@H](C)C[C@H]1C)(C([2H])([2H])[2H])C(F)(F)F` (stereo partly drawn) [Compound 5175, 1,1,1,3,3,3-hexadeutero-2-(trifluoromethyl)propan-2-yl((2R,6S,7R,9R,13aS,14aR,16aS,Z)-2-((6-methoxyisoquinolin-1-yl)oxy)-7,9-dimethyl-14a-(((1-methylcyclopropyl)sulfonyl)carbamoyl)-5,16-dioxo-1,2,3,5,6,7,8,9,10,11,13a,14,14a,15,16,16a-hexadecahydrocyclopropa[e]pyrrolo[1,2-a][1,4]diazacyclopentadecin-6-yl)carbamate], for which the negative-log EC50 (pEC50) in assay [1] and in assay [2] was more than 8.26 in each case.

In the case of `[2H]C([2H])([2H])C(C)(OC(=O)N[C@@H]1C(=O)N2C[C@H](Oc3nccc4cc(OC)ccc34)CC2C(=O)N[C@]2(C(=O)NS(=O)(=O)C3(C)CC3)C[C@H]2/C=C\CC[C@H](C)C[C@H]1C)C([2H])([2H])[2H]` (stereo partly drawn) [Compound 5176, 1,1,1,3,3,3-hexadeutero-2-methylpropan-2-yl((2R,6S,7R,9S,13aS,14aR,16aS,Z)-2-((6-methoxyisoquinolin-1-yl)oxy)-7,9-dimethyl-14a-(((1-methylcyclopropyl)sulfonyl)carbamoyl)-5,16-dioxo-1,2,3,5,6,7,8,9,10,11,13a,14,14a,15,16,16a-hexadecahydrocyclopropa[e]pyrrolo[1,2-a][1,4]diazacyclopentadecin-6-yl)carbamate], the pEC50 is more than 8.26 in assay [1] and 6.99 to 8.32 in assay [2].

Take `[2H]C([2H])([2H])C(C)(OC(=O)N[C@@H]1C(=O)N2C[C@H](Oc3nccc4cc(OC)ccc34)CC2C(=O)N[C@]2(C(=O)NS(=O)(=O)C3(C)CC3)C[C@H]2/C=C\CC[C@@H](C)C[C@H]1C)C([2H])([2H])[2H]` (stereo partly drawn) [Compound 5177, 1,1,1,3,3,3-hexadeutero-2-methylpropan-2-yl((2R,6S,7R,9R,13aS,14aR,16aS,Z)-2-((6-methoxyisoquinolin-1-yl)oxy)-7,9-dimethyl-14a-(((1-methylcyclopropyl)sulfonyl)carbamoyl)-5,16-dioxo-1,2,3,5,6,7,8,9,10,11,13a,14,14a,15,16,16a-hexadecahydrocyclopropa[e]pyrrolo[1,2-a][1,4]diazacyclopentadecin-6-yl)carbamate]: the pEC50 in assay [1] and in assay [2] was more than 8.26 throughout.

On to `COc1ccc2c(O[C@@H]3C[C@H]4C(=O)N[C@]5(C(=O)NS(=O)(=O)C6(C)CC6)C[C@H]5/C=C\CC[C@H](C)C[C@@H](C)[C@H](NC(=O)NC(C)(C)C)C(=O)N4C3)nccc2c1` [Compound 5178, (2R,6S,7R,9S,13aS,14aR,16aS,Z)-6-(3-(tert-butyl)ureido)-2-((6-methoxyisoquinolin-1-yl)oxy)-7,9-dimethyl-N-((1-methylcyclopropyl)sulfonyl)-5,16-dioxo-1,2,3,5,6,7,8,9,10,11,13a,14,14a,15,16,16a-hexadecahydrocyclopropa[e]pyrrolo[1,2-a][1,4]diazacyclopentadecine-14a-carboxamide], for which the negative-log EC50 (pEC50) is more than 8.26 in assay [1] and 6.99 to 8.32 in assay [2].

In the case of `COc1ccc2c(O[C@@H]3C[C@H]4C(=O)N[C@]5(C(=O)NS(=O)(=O)C6(C)CC6)C[C@H]5/C=C\CC[C@@H](C)C[C@@H](C)[C@H](NC(=O)NC(C)(C)C)C(=O)N4C3)nccc2c1` [Compound 5179, (2R,6S,7R,9R,13aS,14aR,16aS,Z)-6-(3-(tert-butyl)ureido)-2-((6-methoxyisoquinolin-1-yl)oxy)-7,9-dimethyl-N-((1-methylcyclopropyl)sulfonyl)-5,16-dioxo-1,2,3,5,6,7,8,9,10,11,13a,14,14a,15,16,16a-hexadecahydrocyclopropa[e]pyrrolo[1,2-a][1,4]diazacyclopentadecine-14a-carboxamide], the negative-log EC50 (pEC50) in assay [1] and in assay [2] was more than 8.26 throughout.

Consider `COc1ccc2c(O[C@@H]3C[C@H]4C(=O)N[C@]5(C(=O)NS(=O)(=O)C6(C)CC6)C[C@H]5/C=C\CC[C@H](C)C[C@@H](C)[C@H](NC(=O)c5ccc(N(C)C)cc5)C(=O)N4C3)nccc2c1` [Compound 5180, (2R,6S,7R,9S,13aS,14aR,16aS,Z)-6-(4-(dimethylamino)benzamido)-2-((6-methoxyisoquinolin-1-yl)oxy)-7,9-dimethyl-N-((1-methylcyclopropyl)sulfonyl)-5,16-dioxo-1,2,3,5,6,7,8,9,10,11,13a,14,14a,15,16,16a-hexadecahydrocyclopropa[e]pyrrolo[1,2-a][1,4]diazacyclopentadecine-14a-carboxamide], for which the pEC50 in assay [1] and in assay [2] was more than 8.26 throughout.

Consider `COc1ccc2c(O[C@@H]3C[C@H]4C(=O)N[C@]5(C(=O)NS(=O)(=O)C6(C)CC6)C[C@H]5/C=C\CC[C@@H](C)C[C@@H](C)[C@H](NC(=O)c5ccc(N(C)C)cc5)C(=O)N4C3)nccc2c1` [Compound 5181, (2R,6S,7R,9R,13aS,14aR,16aS,Z)-6-(4-(dimethylamino)benzamido)-2-((6-methoxyisoquinolin-1-yl)oxy)-7,9-dimethyl-N-((1-methylcyclopropyl)sulfonyl)-5,16-dioxo-1,2,3,5,6,7,8,9,10,11,13a,14,14a,15,16,16a-hexadecahydrocyclopropa[e]pyrrolo[1,2-a][1,4]diazacyclopentadecine-14a-carboxamide], for which the negative-log EC50 (pEC50) in assay [1] and in assay [2] was more than 8.26 throughout.

For the compound `C[C@H]1CC/C=C\[C@@H]2C[C@@]2(C(=O)NS(=O)(=O)C2CC2)NC(=O)[C@@H]2C[C@@H](Oc3nc4ccccc4c4ccccc34)CN2C(=O)[C@@H](NC(=O)OC(C)(C)C)[C@H](C)C1` [Compound 5182, tert-butyl ((2R,6S,7R,9S,13aS,14aR,16aS,Z)-14a-((cyclopropylsulfonyl)carbamoyl)-7,9-dimethyl-5,16-dioxo-2-(phenanthridin-6-yloxy)-1,2,3,5,6,7,8,9,10,11,13a,14,14a,15,16,16a-hexadecahydrocyclopropa[e]pyrrolo[1,2-a][1,4]diazacyclopentadecin-6-yl)carbamate], the negative logarithm of the EC50 (pEC50) in assay [1] and in assay [2] was more than 8.26 throughout.

For the compound `C[C@@H]1CC/C=C\[C@@H]2C[C@@]2(C(=O)NS(=O)(=O)C2CC2)NC(=O)[C@@H]2C[C@@H](Oc3nc4ccccc4c4ccccc34)CN2C(=O)[C@@H](NC(=O)OC(C)(C)C)[C@H](C)C1` [Compound 5183, tert-butyl ((2R,6S,7R,9R,13aS,14aR,16aS,Z)-14a-((cyclopropylsulfonyl)carbamoyl)-7,9-dimethyl-5,16-dioxo-2-(phenanthridin-6-yloxy)-1,2,3,5,6,7,8,9,10,11,13a,14,14a,15,16,16a-hexadecahydrocyclopropa[e]pyrrolo[1,2-a][1,4]diazacyclopentadecin-6-yl)carbamate], the pEC50 in assay [1] and in assay [2] was more than 8.26 in each case.

As for `C[C@@H]1CC/C=C\[C@@H]2C[C@@]2(C(=O)NS(=O)(=O)C2CC2)NC(=O)C2C[C@@H](Oc3nc4ccccc4c4ccccc34)CN2C(=O)[C@@H](NC(=O)OC(C)(C)C(F)(F)F)[C@H](C)C1` (stereo partly drawn) [Compound 5185, 1,1,1-trifluoro-2-methylpropan-2-yl((2R,6S,7R,9R,13aS,14aR,16aS,Z)-14a-((cyclopropylsulfonyl)carbamoyl)-7,9-dimethyl-5,16-dioxo-2-(phenanthridin-6-yloxy)-1,2,3,5,6,7,8,9,10,11,13a,14,14a,15,16,16a-hexadecahydrocyclopropa[e]pyrrolo[1,2-a][1,4]diazacyclopentadecin-6-yl)carbamate], the pEC50 in assay [1] and in assay [2] was more than 8.26 each time.

Regarding `COc1ccc2c(O[C@@H]3C[C@H]4C(=O)N[C@]5(C(=O)NS(=O)(=O)C6CC6)C[C@H]5/C=C\CC[C@H](C)C[C@@H](C)[C@H](NC(=O)OC(C)(C)C)C(=O)N4C3)nc(-c3ccccc3)cc2c1` [Compound 5186, tert-butyl ((2R,6S,7R,9S,13aS,14aR,16aS,Z)-14a-((cyclopropylsulfonyl)carbamoyl)-2-((6-methoxy-3-phenylisoquinolin-1-yl)oxy)-7,9-dimethyl-5,16-dioxo-1,2,3,5,6,7,8,9,10,11,13a,14,14a,15,16,16a-hexadecahydrocyclopropa[e]pyrrolo[1,2-a][1,4]diazacyclopentadecin-6-yl)carbamate], the pEC50 in assay [1] and in assay [2] was more than 8.26 each time.
